Experimental data: PubChem BioAssay (NCI)
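How tested: cells in 96-well plates exposed to compound for 48 hours at five concentrations. GI50 marks 50% less growth. TGI: total growth inhibition.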

What was measured:
Assay in all cases: NCI-60 cell line screen, 48 h
EKVX NSCLC = test system: EKVX NSCLC
HCC-2998 colon = test system: HCC-2998 colon
SN12C renal = test system: SN12C renal
A549 NSCLC = test system: A549 NSCLC
IGROV1 ovarian = test system: IGROV1 ovarian
BT-549 breast = test system: BT-549 breast
SF-539 CNS = test system: SF-539 CNS
SNB-19 CNS = test system: SNB-19 CNS
DU-145 prostate = test system: DU-145 prostate
SK-MEL-5 melanoma = test system: SK-MEL-5 melanoma

SMILES | GI50 (EKVX NSCLC) [µM] | TGI (EKVX NSCLC) [µM] | GI50 (HCC-2998 colon) [µM] | TGI (HCC-2998 colon) [µM] | GI50 (SN12C renal) [µM] | TGI (SN12C renal) [µM] | GI50 (A549 NSCLC) [µM] | TGI (A549 NSCLC) [µM] | GI50 (IGROV1 ovarian) [µM] | TGI (IGROV1 ovarian) [µM] | GI50 (BT-549 breast) [µM] | TGI (BT-549 breast) [µM] | GI50 (SF-539 CNS) [µM] | TGI (SF-539 CNS) [µM] | GI50 (SNB-19 CNS) [µM] | TGI (SNB-19 CNS) [µM] | GI50 (DU-145 prostate) [µM] | TGI (DU-145 prostate) [µM] | GI50 (SK-MEL-5 melanoma) [µM] | TGI (SK-MEL-5 melanoma) [µM]
C[C@@H]1CN(Cc2ccc(/C=C/c3n[nH]c4ccc5nc(-c6cn[nH]c6C(F)(F)F)c6c(c5c34)CCCC6)cc2)C[C@H](C)O1 | 3.7 | 17.3 | 2.57 | 10.5 | 2.46 | 14.9 | 2.56 | 15 | 1.33 | 10.7 | 3.09 | 14.8 | 2.97 | 14.7 | 10.2 | 22.1 | 4.53 | 16.9 | 12.2 | 24.7
O=C(CCCn1ccnc1[N+](=O)[O-])NCCn1cnc([N+](=O)[O-])c1 | – | > 100 | – | > 100 | – | > 100 | – | > 100 | – | > 100 | – | > 100 | – | > 100 | – | > 100 | – | > 100 | – | > 100
N#Cc1cc2cc3c4c(c2oc1=O)CCCN4CCC3 | – | > 100 | – | > 100 | – | > 100 | – | > 100 | – | > 100 | – | > 100 | – | > 100 | – | > 100 | – | > 100 | – | > 100
COc1ccc2nc(-c3ccccc3)cc(Nc3ccc(/C(C)=N/O)cc3)c2c1 | 3.02 | > 100 | 2.19 | 4.94 | 1.7 | 3.19 | 3.42 | 32 | 13.4 | > 22 | 2.07 | 4.76 | 0.35 | 3.05 | 5.38 | > 100 | 2.8 | > 23 | 2.62 | 7.57
CC(C)(C)c1ccc(C(=O)N/N=C/c2ccc(O)cc2O)cc1 | 0.356 | 11.8 | 0.695 | 7.62 | 0.801 | 13 | 0.594 | 35 | 0.411 | 12.4 | 0.933 | 9.53 | 0.452 | 2.98 | 0.825 | 17.9 | 0.564 | 14 | 0.913 | 3.4
COc1cc(Nc2ncc3c(n2)-c2ccc(Cl)cc2C(c2c(F)cccc2OC)=NC3)ccc1C(=O)O | 13.1 | 69.1 | 19.2 | > 100 | 4.04 | > 90.4 | 0.505 | 37.8 | 2.19 | 19.3 | 5.88 | > 81.1 | 0.503 | 20 | 13.3 | > 100 | 17.6 | > 87.5 | 12.3 | 29.1
c1ccc(-c2n(Cc3ccc4ccccc4n3)c3ccccc3[n+]2Cc2ccc3ccccc3n2)cc1 | 0.693 | 4.27 | 0.319 | 1.37 | 0.302 | 1.22 | 0.346 | 2.06 | 0.244 | 1.28 | 0.31 | 1.32 | 0.354 | 1.4 | 0.277 | 1.31 | 0.417 | 5.55 | 0.219 | 0.502
COc1cc(/C=C/C(=O)c2c(C)n([O-])c3cc(C)c(C)cc3[n+]2=O)cc(OC)c1OC | 18 | 42.1 | 14.2 | 32.6 | 17.5 | 42.7 | – | – | 12.8 | 29.4 | 11.8 | 30.8 | 14.9 | 31.6 | 16.9 | 39.9 | 13.1 | 30.8 | 13.9 | 34
Cc1sc2nc(-c3ccccn3)c(/C=N/N=C(N)N)n2c1C | 8.63 | 19.8 | – | – | 14.4 | 28.9 | 12.6 | 45 | 25.6 | > 58.3 | 1.92 | 4.39 | 28.6 | 50.8 | 7.52 | 19.5 | 4.88 | 12.6 | 3.58 | 8.13
O=S(=O)(NC(=S)Nc1ccccc1)c1ccc(N2N=C3c4ccccc4CC3C2c2ccc(Cl)cc2)cc1 (stereo not given) | 27.4 | 60.5 | – | – | 24.5 | 55.6 | 20.9 | 51.7 | 20.2 | 49.3 | 33.2 | 78.3 | 24.2 | 45.7 | 21.8 | 46.4 | 24.9 | 51.4 | 20.4 | 40.9
O=C1C2C(C(=O)[N]1[Hg][c]1ccccc1)C1(Cl)C(Cl)=C(Cl)C2(Cl)C1(Cl)Cl (stereo not given) | 6.91 | 25.2 | 2.12 | 4.1 | – | – | 9.84 | 25 | 1.2 | 3.63 | 1.2 | 2.49 | – | – | 1.54 | 2.99 | 1.66 | 3.29 | 1 | 2.17
